Patent publication EP0334146A1, “Morpholines and morpholine-N-oxides, medicines containing these compounds and process for their preparation” (Dr. Karl Thomae GmbH, priority 1988, dated 1989)

Tested on: Mäusen
Assay: Cardiac side effects: heart rate by ECG-triggered tachograph during the blood glucose test
Assay type: in vivo
Conditions: Dose 3,0 mg/kg oral; one hour after application; values in brackets = not significant (p > 0.05)
Excerpt: Das Auftreten von unerwünschten Nebenwirkungen auf das Herz konnte für die erfindungsgemäßen Verbindungen für den therapeutisch angestrebten stoffwechselaktiven Dosisbereich ausgeschlossen werden. Als Nachweis diente die Messung der Herzfrequenz an Mäusen während der Testung auf blutzuckersenkende Wirkung (s.o.). Eine Stunde nach der oralen Applikation der Verbindungen wurde die Herzfrequenz mittels EKG-getriggertem Tachographen bestimmt. Die nachfolgende Tabelle gibt die Änderung der Herzfrequenz in % der Kontrollgruppe wieder.

CC(Cc1ccc(OCC(=O)O)cc1)N1CCOC(c2cccc(Cl)n2)C1 (stereo not shown) [Beispiel 4, N-[2-(4-Carboxymethoxyphenyl)-1-methylethyl]-2-(6-chlor-pyridin-2-yl)-morpholin]
Änderung der Herzfrequenz, % Änderung vom Wert der Kontrollgruppe: ( 0 ) %
